Drawing on patent publication EP2100894A1, “Pyridopyrimidines used as Plk1 (polo-like kinase) inhibitors” (4SC AG, priority 2008, dated 2009), this text covers IC50 for 24 compounds.

Where only a bound is given, the exact number is not on record here.

The target in the assay is T1, PIk1 (Homo sapiens, UniProt P53350).
T1 construct: His tag (histidine tag) (N); made in house; host or cells: SF9 insect cells
Nature of the assay: PIk1 kinase activity inhibition assay (33P incorporation into alpha casein, flash plates). The format is biochemical. As to conditions: recombinant N-terminally histidine-tagged PIk1, alpha casein as substrate, 100 nM Li-ATP, 80 minutes at 30°C. Here is the method:
The inhibition of PIk1 kinase activity can be measured using recombinant PIk1 protein expressed as an N-terminally histidine-tagged protein in SF9 insect cells and alpha casein as substrate. The PIk1 assay is run in 96 well plates by incubating 50 to 100 ng per well recombinant PIk1, 500 ng per well alpha casein (Sigma, # C-6780) as substrate, 10 µl of compound of invention (test compounds were dissolved as 20 mM solutions in dimethylsulfoxide (DMSO) and subsequently diluted), and 100 nM Li-ATP (including ^33P-ATP) in 100 µl of reaction buffer ([…], pH 7.5; 3 mM MgCl2; 3 mM MnCl2; 3 µM Na-Orthovanadat; 1 mM DTT; 1 µg/ml PEG 8000) for 80 minutes at 30°C. The reactions are terminated by adding 100 µl stopping buffer (2% H3PO4 for 5 minutes) and are washed 3 times with washing solution (0,9% NaCl). Determining ^33P incorporated into the protein substrate alpha casein, the detection is based on the adhesion of the phosphorylated protein to the surface of scintillator-coated flash plates (Perkin Elmer, USA; # SMP-200). Phosphorylation of alpha casein is measured by counting the radioactivity bound to the plate for 60 sec. using a plate reader (Perkin Elmer, USA; Wallac Microbeta). By this method, the IC50 value of the PIk1 inhibition is determined as described above. […]

T1 sequence (P53350 whole entry): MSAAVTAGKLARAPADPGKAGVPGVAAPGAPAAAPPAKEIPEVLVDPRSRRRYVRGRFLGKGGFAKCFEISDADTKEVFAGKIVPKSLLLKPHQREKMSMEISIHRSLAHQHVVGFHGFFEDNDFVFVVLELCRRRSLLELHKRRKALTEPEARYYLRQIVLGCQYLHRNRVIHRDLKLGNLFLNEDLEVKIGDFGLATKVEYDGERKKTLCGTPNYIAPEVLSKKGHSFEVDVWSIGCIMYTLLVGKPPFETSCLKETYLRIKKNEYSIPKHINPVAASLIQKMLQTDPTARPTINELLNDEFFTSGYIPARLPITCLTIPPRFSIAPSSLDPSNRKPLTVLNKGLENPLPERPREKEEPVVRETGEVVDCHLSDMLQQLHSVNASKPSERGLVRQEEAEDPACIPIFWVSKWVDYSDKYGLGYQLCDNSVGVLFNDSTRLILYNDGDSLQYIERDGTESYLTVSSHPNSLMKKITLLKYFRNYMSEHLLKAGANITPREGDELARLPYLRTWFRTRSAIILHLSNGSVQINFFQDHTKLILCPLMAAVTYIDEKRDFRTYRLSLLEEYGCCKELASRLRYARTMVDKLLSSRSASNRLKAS

The term IC50 denotes the midpoint of a concentration-inhibition curve. Regarding `C/C=C/c1c(OC)c(=O)n(C)c2cnc(Nc3ccc(C(=O)NCC4CCN(C)CC4)cc3OC)nc12` [Example 26, 3-methoxy-4-({7-methoxy-5-methyl-6-oxo-8-[(1E)-prop-1-en-1-yl]-5,6-dihydropyrido[3,2-d]pyrimidin-2-yl}amino)-N-[(1-methylpiperidin-4-yl)methyl]benzamide], the IC50 is less than 0.1 µM.

For the compound `C/C=C/c1c(OCC2CC2)c(=O)n(C)c2cnc(Nc3ccc(C(=O)NC4CCN(C)CC4)cc3OC)nc12` [Example 27, 4-({7-(cyclopropylmethoxy)-5-methyl-6-oxo-8-[(1E)-prop-1-en-1-yl]-5,6-dihydropyrido[3,2-d]pyrimidin-2-yl}amino)-3-methoxy-N-(1-methylpiperidin-4-yl)benzamide], the IC50 is less than 0.1 µM.

Consider `C/C=C/c1c(OC)c(=O)n(C)c2cnc(Nc3ccc(C(=O)Nc4cccnc4)cc3OC)nc12` [Example 28, 3-methoxy-4-({7-methoxy-5-methyl-6-oxo-8-[(1E)-prop-1-en-1-yl]-5,6-dihydropyrido[3,2-d]pyrimidin-2-yl}amino)-N-pyridin-3-ylbenzamide], for which the IC50 was less than 1 µM.

Consider `C/C=C/c1c(OC)c(=O)n(C)c2cnc(Nc3ccc(C(=O)N[C@@H](C)Cc4c[nH]cn4)cc3OC)nc12` [Example 29, N-[(1S)-2-(1H-imidazol-4-yl)-1-methylethyl]-3-methoxy-4-({7-methoxy-5-methyl-6-oxo-8-[(1E)-prop-1-en-1-yl]-5,6-dihydropyrido[3,2-d]pyrimidin-2-yl}amino)benzamide], for which the IC50 was less than 0.1 µM.

As for `CCOc1c(-c2ccsc2)c2nc(Nc3ccc(C(=O)NC4CCN(C)CC4)cc3OC)ncc2n(C)c1=O` [Example 30, 4-{[7-ethoxy-5-methyl-6-oxo-8-(3-thienyl)-5,6-dihydropyrido[3,2-d]pyri-midin-2-yl]amino}-3-methoxy-N-(1-methylpiperidin-4-yl)benzamide], the IC50 is less than 0.01 µM.

Take `COc1cc(C(=O)NC2CCN(C)CC2)ccc1Nc1ncc2c(n1)c(-c1ccsc1)c(OC(C)C)c(=O)n2C` [Example 31, 4-{[7-isopropoxy-5-methyl-6-oxo-8-(3-thienyl)-5,6-dihydropyrido[3,2-d]pyrimidin-2-yl]amino}-3-methoxy-N-(1-methylpiperidin-4-yl)benzamide]: the IC50 was less than 0.1 µM.

`COc1cc(C(=O)NC2CCN(C)CC2)ccc1Nc1ncc2c(n1)c(-c1ccsc1)c(OCC1CC1)c(=O)n2C` [Example 32, 4-{[7-(cyclopropylmethoxy)-5-methyl-6-oxo-8-(3-thienyl)-5,6-dihydro-pyrido[3,2-d]pyrimidin-2-yl]amino}-3-methoxy-N-(1-methylpiperidin-4-yl)benzamide]: the IC50 was less than 0.1 µM.

As for `COc1cc(C(=O)NC2CCN(C)CC2)ccc1Nc1ncc2c(n1)c(-c1cscc1C)c(OC)c(=O)n2C` [Example 33, 3-methoxy-4-{[7-methoxy-5-methyl-8-(4-methyl-3-thienyl)-6-oxo-5,6-dihydropyrido[3,2-d]pyrimidin-2-yl]amino}-N-(1-methylpiperidin-4-yl)benzamide], the IC50 was less than 1 µM.

In the case of `COc1cc(C(=O)NC2CCN(C)CC2)ccc1Nc1ncc2c(n1)c(-c1cncnc1)c(OC)c(=O)n2C` [Example 34, 3-methoxy-4-[(7-methoxy-5-methyl-6-oxo-8-pyrimidin-5-yl-5,6-dihydro-pyrido[3,2-d]pyrimidin-2-yl)amino]-N-(1-methylpiperidin-4-yl)benzamide], the IC50 was less than 1 µM.

Consider `COc1cc(C(=O)NC2CCN(C)CC2)ccc1Nc1ncc2c(n1)c(-c1cnn(C)c1)c(OC)c(=O)n2C` [Example 35, 3-methoxy-4-{[7-methoxy-5-methyl-8-(1-methyl-1H-pyrazol-4-yl)-6-oxo-5,6-dihydropyrido[3,2-d]pyrimidin-2-yl]amino}-N-(1-methylpiperidin-4-yl)benzamide], for which the IC50 is less than 1 µM.

Turning to `CCC(C)Oc1c(-c2ccsc2)c2nc(Nc3ccc(C(=O)NC4CCN(C)CC4)cc3OC)ncc2n(C)c1=O` (stereo not drawn) [Example 36, 4-{[7-sec-butoxy-5-methyl-6-oxo-8-(3-thienyl)-5,6-dihydropyrido[3,2-d]pyrimidin-2-yl]amino}-3-methoxy-N-(1-methylpiperidin-4-yl)benzamide], the IC50 is less than 0.1 µM.

Turning to `CCOc1c(C2CC2)c2nc(Nc3ccc(C(=O)NC4CCN(C)CC4)cc3OC)ncc2n(C)c1=O` [Example 37, 4-[(8-cyclopropyl-7-ethoxy-5-methyl-6-oxo-5,6-dihydropyrido[3,2-d]pyrimidin-2-yl)amino]-3-methoxy-N-(1-methylpiperidin-4-yl)benzamide], the IC50 was less than 0.1 µM.

Consider `COc1cc(C(=O)NC2CCN(C)CC2)ccc1Nc1ncc2c(n1)c(C1CC1)c(OCC1CC1)c(=O)n2C` [Example 38, 4-{[8-cyclopropyl-7-(cyclopropylmethoxy)-5-methyl-6-oxo-5,6-dihydro-pyrido[3,2-d]pyrimidin-2-yl]amino}-3-methoxy-N-(1-methylpiperidin-4-yl)benzamide], for which the IC50 is less than 0.01 µM.

Take `COc1cc(C(=O)NC2CCN(C)CC2)ccc1Nc1ncc2c(n1)c(-c1ccoc1)c(OCC1CC1)c(=O)n2C` [Example 39, 4-{[7-(cyclopropylmethoxy)-8-(3-furyl)-5-methyl-6-oxo-5,6-dihydro-pyrido[3,2-d]pyrimidin-2-yl]amino}-3-methoxy-N-(1-methylpiperidin-4-yl)benzamide]: the IC50 is less than 0.01 µM.

In the case of `C/C=C/c1c(OC(C)CC)c(=O)n(C)c2cnc(Nc3ccc(C(=O)NC4CCN(C)CC4)cc3OC)nc12` (stereo not drawn) [Example 40, 4-({7-sec-butoxy-5-methyl-6-oxo-8-[(1E)-prop-1-en-1-yl]-5,6-dihydro-pyrido[3,2-d]pyrimidin-2-yl}amino)-3-methoxy-N-(1-methylpiperidin-4-yl)benzamide], the IC50 was less than 0.1 µM.

As to `C/C=C/c1c(OCC(C)C)c(=O)n(C)c2cnc(Nc3ccc(C(=O)NC4CCN(C)CC4)cc3OC)nc12` [Example 41, 4-({7-isobutoxy-5-methyl-6-oxo-8-[(1E)-prop-1-en-1-yl]-5,6-dihydro-pyrido[3,2-d]pyrimidin-2-yl}amino)-3-methoxy-N-(1-methylpiperidin-4-yl)benzamide], the IC50 is less than 0.01 µM.

For the compound `C/C=C/c1c(OCC2CCCC2)c(=O)n(C)c2cnc(Nc3ccc(C(=O)NC4CCN(C)CC4)cc3OC)nc12` [Example 42, 4-({7-(cyclopentylmethoxy)-5-methyl-6-oxo-8-[(1E)-prop-1-en-1-yl]-5,6-dihydropyrido[3,2-d]pyrimidin-2-yl}amino)-3-methoxy-N-(1-methylpiperidin-4-yl)benzamide], the IC50 was less than 0.1 µM.

Consider `C/C=C/c1c(OC2CCC2)c(=O)n(C)c2cnc(Nc3ccc(C(=O)NC4CCN(C)CC4)cc3OC)nc12` [Example 43, 4-({7-(cyclobutyloxy)-5-methyl-6-oxo-8-[(1E)-prop-1-en-1-yl]-5,6-dihydropyrido[3,2-d]pyrimidin-2-yl}amino)-3-methoxy-N-(1-methylpiperidin-4-yl)benzamide], for which the IC50 was less than 0.01 µM.

Take `CCOc1c(-c2ncco2)c2nc(Nc3ccc(C(=O)NC4CCN(C)CC4)cc3OC)ncc2n(C)c1=O` [Example 44, 4-{[7-ethoxy-5-methyl-8-(1,3-oxazol-2-yl)-6-oxo-5,6-dihydropyrido[3,2-d]pyrimidin-2-yl]amino}-3-methoxy-N-(1-methylpiperidin-4-yl)benzamide]: the IC50 is less than 0.1 µM.

`C/C=C/c1c(OC(C)C2CC2)c(=O)n(C)c2cnc(Nc3ccc(C(=O)NC4CCN(C)CC4)cc3OC)nc12` (stereo not drawn) [Example 45, 4-({7-(1-cyclopropylethoxy)-5-methyl-6-oxo-8-[(1E)-prop-1-en-1-yl]-5,6-dihydropyrido[3,2-d]pyrimidin-2-yl}amino)-3-methoxy-N-(1-methylpiperidin-4-yl)benzamide]: the IC50 was less than 0.1 µM.

For the compound `C#Cc1c(OC)c(=O)n(C)c2cnc(Nc3ccc(C(=O)NC4CCN(C)CC4)cc3OC)nc12` [Example 46, 4-[(8-ethynyl-7-methoxy-5-methyl-6-oxo-5,6-dihydropyrido[3,2-d]pyri-midin-2-yl)amino]-3-methoxy-N-(1-methylpiperidin-4-yl)benzamide], the IC50 is less than 0.1 µM.

With `COc1cc(C(=O)NCCC2CCCN2C)ccc1Nc1ncc2c(n1)c(-c1ccsc1)c(OCC1CC1)c(=O)n2C` (stereo not drawn) [Example 47, 4-{[7-(cyclopropylmethoxy)-5-methyl-6-oxo-8-(3-thienyl)-5,6-dihydropyrido[3,2-d]pyrimidin-2-yl]amino}-3-methoxy-N-[2-(1-methylpyrrolidin-2-yl)ethyl]benzamide], the IC50 is less than 0.01 µM.

For `COc1cc(C(=O)NCC2CCN(C)CC2)ccc1Nc1ncc2c(n1)c(-c1ccsc1)c(OCC1CC1)c(=O)n2C` [Example 48, 4-{[7-(cyclopropylmethoxy)-5-methyl-6-oxo-8-(3-thienyl)-5,6-dihydro-pyrido[3,2-d]pyrimidin-2-yl]amino}-3-methoxy-N-[(1-methylpiperidin-4-yl)methyl] benzamide], the IC50 was less than 0.01 µM.

As for `COc1cc(C(=O)NC2CCN(C(C)C)CC2)ccc1Nc1ncc2c(n1)c(-c1ccsc1)c(OCC1CC1)c(=O)n2C` [Example 49, 4-{[7-(cyclopropylmethoxy)-5-methyl-6-oxo-8-(3-thienyl)-5,6-dihydropyrido[3,2-d]pyrimidin-2-yl]amino}-N-(1-isopropylpiperidin-4-yl)-3-methoxybenzamide], the IC50 is less than 0.01 µM.
